Paper PMC10313921, “A living ex vivo platform for functional, personalized brain cancer diagnosis” (Cell Reports Medicine, 2023)

Columns and labels:
[1] = tested on: MB231Br (breast cancer metastasis to brain); assay: Drug screening of MB231Br tumor foci on OBSCs; type: cell-based, human; settings: for EC50 / EC90 / IC50: Homo sapiens; for EC50: dose required to kill 50% of the tumor; for EC90: dose required to kill 90% of the tumor; for IC50: MB231Br on OBSCs, dosed day 1, survival via bioluminescence day 4, linear interpolation; for Slope: slope through the EC50
[2] = tested on: LN229 (established GBM line); assay: Drug screening of LN229 tumor foci on OBSCs; type: cell-based, human; settings: for EC50 / EC90 / IC50: Homo sapiens; for EC50: LN-229, dose required to kill 50% of the tumor; for EC90: LN-229, dose required to kill 90% of the tumor; for IC50: LN-229, dosed day 1, survival via bioluminescence day 4, linear interpolation; for AUC: area under the dose-response curve, trapezoidal rule; for EC10: dose required to kill 10% of the tumor; for EC25: dose required to kill 25% of the tumor; for Slope: slope through the EC50
Summary of the method: (§1)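 Tumor foci (25,000 cells) were seeded onto organotypic brain slice cultures 2 h after slicing, two per slice; one day later six drug concentrations were added to the medium or X-ray was applied. Bioluminescence was read 3 days after treatment, normalized to day-one fluorescence and to untreated controls.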

[3] = tested on: U373WT (wild-type established GBM line); assay: Drug screening of U373WT tumor foci on OBSCs; type: cell-based, human; settings: U373 WT on OBSCs; for EC50 / EC90 / IC50: Homo sapiens, U373 MG; for EC50: dose required to kill 50% of the tumor; for EC90: dose required to kill 90% of the tumor; for IC50: dosed day 1, survival via bioluminescence day 4, linear interpolation; for AUC: area under the dose-response curve, trapezoidal rule; for EC10: dose required to kill 10% of the tumor; for Slope: slope through the EC50
Summary of the method: as §1

[4] = tested on: U373KO (RAD18 knockout of U373WT via CRISPR); assay: Drug screening of U373KO tumor foci on OBSCs; type: cell-based, human; settings: U373 KO on OBSCs; for EC50 / EC90 / IC50: Homo sapiens, U373 MG; for EC50: dose required to kill 50% of the tumor; for EC90: dose required to kill 90% of the tumor; for IC50: dosed day 1, survival via bioluminescence day 4, linear interpolation; for AUC: area under the dose-response curve, trapezoidal rule
Summary of the method: as §1

[5] = tested on: GBM8 (high-passage patient-derived GBM line); assay: Drug screening of GBM8 tumor foci on OBSCs; type: cell-based, human; settings: for Killing at highest dose / AUC / EC10 / EC25 / EC75 / Slope / EC50 / IC50: GBM8 on OBSCs; for AUC: area under the dose-response curve, trapezoidal rule; for EC10: dose required to kill 10% of the tumor; for EC25: dose required to kill 25% of the tumor; for EC75: dose required to kill 75% of the tumor; for Slope: slope through the EC50; for EC90 / EC50 / IC50: Homo sapiens; for EC50: dose required to kill 50% of the tumor, read-out: EC50; for IC50: dosed day 1, survival via bioluminescence day 4, linear interpolation, read-out: IC50
Summary of the method: as §1

[6] = tested on: MS21 (low-passage patient-derived GBM line); assay: Drug screening of MS21 tumor foci on OBSCs; type: cell-based, human; settings: for EC90 / EC50 / IC50: Homo sapiens; for EC50: dose required to kill 50% of the tumor, read-out: EC50; for IC50: dosed day 1, survival via bioluminescence day 4, linear interpolation, read-out: IC50
Summary of the method: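 Luciferase-expressing tumor cells seeded onto organotypic brain slice cultures; one day later treated with six drug concentrations in the medium, or X-irradiation. Bioluminescence read three days after treatment, normalised to day-one fluorescence and untreated controls. Dose-response values by linear interpolation; DSS combines weighted tumor-kill versus slice-toxicity parameters (−100 to 100).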

[7] = tested on: PDIPG (low-passage pediatric patient-derived line); assay: Drug screening of PDIPG tumor foci on OBSCs; type: cell-based, human; settings: for EC90 / EC50 / IC50: Homo sapiens; for EC50: dose required to kill 50% of the tumor, read-out: EC50; for IC50: dosed day 1, survival via bioluminescence day 4, linear interpolation, read-out: IC50; for AUC: area under the dose-response curve, trapezoidal rule; for EC25: dose required to kill 25% of the tumor; for Slope: slope through the EC50
Summary of the method: as §1

[8] = tested on: PIS patient tumor tissue (intracranial sarcoma); assay: Drug screening of uncultured patient tumor tissue PIS on OBSCs; type: cell-based, human; settings: Homo sapiens; PIS on OBSCs; dose required to kill 90% of the tumor
Protocol: (§2) Tumor cells were seeded onto OBSCs 2h after slicing as described above. One day after tumor seeding, six concentrations of each drug were diluted in the media underneath each culture insert, or XRad was applied using an X-Rad 320 Precision X-ray machine (n = 4 tumor foci per concentration; n ≥ 24 tumor foci per drug per cell line). Three days after treatment, the bioluminescence of live tumor cells was measured using an AMI optical imager (Spectral Instruments) and dose-response curves were generated. Tumor survival was normalized to day one tumor fluorescence and compared to an untreated control group.
(§3) To engraft onto OBSCs, the cryopreserved/thawed or fresh brain tumor tissue was filtered through a 100 μm cell strainer. Each 50 mg of tissue was transfected with 1mL mcherry-FLuc Lentivirus at 1.5e7 vg/ml with 1μL polybrene for 4h at 37°C. After incubation, the brain tumor tissue was washed with PBS three times to remove the residual virus and reconstituted in PBS with a final volume of 150 μL. Then the tissue solution was engrafted atop OBSCs at ∼0.5 mg tissue in 3 μL of PBS on each hemisphere of the slice. The OBSC engrafted with patient tumor tissue was incubated at 37°C with 5% CO2 and 95% humidity. The BSM was changed after 24h and subsequently every 3 days. Tumor treatment studies were executed as described above for tumor lines. The viability of the patient tissue was measured by an AMI optical imaging system with the addition of 1.5 mg/mL luciferin underneath the culture insert.
(§4) Several weighted parameters were factored into an overall drug sensitivity score.
(§5) For DSS parameters 1–6, therapeutic windows were calculated by comparing OBSC toxicity and tumor response at the doses where tumor kill passed through the DSS parameter (Table S1 and S3). For DSS parameter 7, the therapeutic window was calculated by comparing the slopes through the tumor EC50 and the OBSC tox EC50. For DSS parameter 8, the therapeutic window was calculated by comparing the areas under tumor kill and OBSC tox curves. Normalized therapeutic window ratios for DSS parameters 1–8 within each drug-tumor-OBSC interaction were calculated in the following manner: within each window, values ranged from +1 to −1, where values approaching +1 signify increasing tumor kill relative to normal tissue toxicity, and values approaching −1 indicate agents where tumors remained highly viable while toxicity to the normal OBSC tissue was elevated. DSS parameters 9–11 were determined based on the behavior of the tumor in response to the drug, as defined above.
(§6) All individually weighed parameters were added together to generate the DSS. Overall DSS from 0 to 100 signify increasing efficacy in tumor kill relative to OBSC toxicity, while scores from 0 to −100 describe scenarios in which tumors thrive more effectively than OBSCs for a given treatment. Dose-response values were calculated via linear interpolation of raw data, not from best-fit curve equations.

[9] = tested on: MG-II patient tumor tissue (WHO grade II meningioma); assay: Drug screening of uncultured patient tumor tissue MG-II on OBSCs; type: cell-based; settings: Homo sapiens, dose required to kill 90% of the tumor
Protocol: as §2, §3, §4, §5, §6

[10] = dose required to kill 25% of the tumor

Nc1ccn([C@@H]2O[C@H](CO)[C@@H](O)C2(F)F)c(=O)n1 [Gemcitabine]
EC50 ([1]; MB231BR on OBSCs): > 10 µM | EC90 ([1]; MB231BR on OBSCs): > 10 µM | IC50 [1]: > 10 µM | Killing at highest dose ([1]; MB231BR on OBSCs): -7.90E-01 fraction of tumor population killed | Slope ([1]; MB231BR on OBSCs): 1.56E-02 | Killing at highest dose [2]: 2.80E-01 fraction of tumor population killed | EC50 [2]: > 10 µM | EC90 [2]: > 10 µM | IC50 [2]: > 10 µM | AUC [2]: 7.06E+01 | EC10 [2]: 6.23 µM | EC25 [2]: 8.4 µM | Slope [2]: -5.45E-03 | EC50 [3]: > 10 µM | EC90 [3]: > 10 µM | IC50 [3]: > 10 µM | Killing at highest dose [3]: 3.30E-01 fraction of tumor population killed | AUC [3]: 7.29E+01 | EC10 [3]: 0.385 µM | EC25 [3, 10]: 50 µM | Slope [3]: -1.60E-03 | EC50 [4]: 0.868 µM | EC90 [4]: > 10 µM | IC50 [4]: 0.9 µM | Killing at highest dose [4]: 6.20E-01 fraction of tumor population killed | AUC [4]: 3.67E+01 | EC10 ([4]; dose required to kill 10% of the tumor): 0.139 µM | EC25 [4, 10]: 0.347 µM | Slope ([4]; slope through the EC50): -3.80E-01 | Killing at highest dose [5]: 9.80E-01 fraction of tumor population killed | AUC [5]: 2.79E+00 | EC10 [5]: 0.0676 µM | EC25 [5]: 0.169 µM | EC75 [5]: 0.533 µM | Slope [5]: -1.48E+00 | EC90 [5]: 2 µM | EC50 [5]: 0.338 µM | IC50 [5]: 0.34 µM | EC90 [6]: > 10 µM | EC50 ([6]; MS21 on OBSCs): > 10 µM | IC50 ([6]; MS21 on OBSCs): > 10 µM | Killing at highest dose ([6]; MS21 on OBSCs): -1.20E-01 fraction of tumor population killed | EC90 [7]: > 10 µM | EC50 ([7]; PDIPG on OBSCs): > 10 µM | IC50 ([7]; PDIPG on OBSCs): > 10 µM | Killing at highest dose ([7]; PDIPG on OBSCs): 4.80E-01 fraction of tumor population killed | AUC ([7]; PDIPG on OBSCs): 5.72E+01 | EC25 ([7]; PDIPG on OBSCs): 0.284 µM | Slope ([7]; PDIPG on OBSCs): -3.03E-04 | EC90 [8]: > 10 µM | EC90 [9]: > 10 µM

CC[C@]1(O)C[C@H]2CN(CCc3c([nH]c4ccccc34)[C@@](C(=O)OC)(c3cc4c(cc3OC)N(C=O)[C@H]3[C@@](O)(C(=O)OC)[C@H](OC(C)=O)[C@]5(CC)C=CCN6CC[C@]43[C@@H]65)C2)C1 [Vincristine]
EC50 ([1]; MB231BR on OBSCs): > 10 µM | EC90 ([1]; MB231BR on OBSCs): > 10 µM | IC50 [1]: > 10 µM | Killing at highest dose ([1]; MB231BR on OBSCs): 7.00E-02 fraction of tumor population killed | AUC ([1]; MB231BR on OBSCs, area under the dose-response curve, trapezoidal rule): 1.02E+01 | Slope ([1]; MB231BR on OBSCs): -1.89E-02 | Killing at highest dose [2]: 4.10E-01 fraction of tumor population killed | EC50 [2]: > 10 µM | EC90 [2]: > 10 µM | IC50 [2]: > 10 µM | AUC [2]: 6.37E+00 | EC10 [2]: 0.00667 µM | EC25 [2]: 0.418 µM | Slope [2]: -8.89E-03 | EC50 [3]: > 10 µM | EC90 [3]: > 10 µM | IC50 [3]: > 10 µM | Killing at highest dose [3]: -6.60E-01 fraction of tumor population killed | AUC [3]: 1.36E+01 | EC10 [3]: 0.82 µM | Slope [3]: 5.78E-02 | EC50 [4]: > 10 µM | EC90 [4]: > 10 µM | IC50 [4]: > 10 µM | Killing at highest dose [4]: -7.40E-01 fraction of tumor population killed | AUC [4]: 1.89E+01 | Killing at highest dose [5]: 1.00E+00 fraction of tumor population killed | AUC [5]: 2.38E-01 | EC10 [5]: 0.00435 µM | EC25 [5]: 0.0129 µM | EC75 [5]: 0.0843 µM | Slope [5]: -7.00E+00 | EC90 [5]: 0.26 µM | EC50 [5]: 0.0486 µM | IC50 [5]: 0.05 µM | EC90 [6]: > 10 µM | EC50 ([6]; MS21 on OBSCs): 4.6 µM | IC50 ([6]; MS21 on OBSCs): 4.6 µM | Killing at highest dose ([6]; MS21 on OBSCs): 5.30E-01 fraction of tumor population killed | AUC ([6]; MS21 on OBSCs, area under the dose-response curve, trapezoidal rule): 5.22E+00 | EC10 ([6]; MS21 on OBSCs, dose required to kill 10% of the tumor): 0.00526 µM | EC25 ([6]; MS21 on OBSCs, dose required to kill 25% of the tumor): 0.172 µM | Slope ([6]; MS21 on OBSCs, slope through the EC50): -5.56E-03 | EC90 [7]: > 10 µM | EC50 ([7]; PDIPG on OBSCs): > 10 µM | IC50 ([7]; PDIPG on OBSCs): > 10 µM | Killing at highest dose ([7]; PDIPG on OBSCs): 4.86E-01 fraction of tumor population killed | AUC ([7]; PDIPG on OBSCs): 6.36E+00 | EC10 ([7]; PDIPG on OBSCs, dose required to kill 10% of the tumor): 0.242 µM | EC25 ([7]; PDIPG on OBSCs): 0.406 µM | Slope ([7]; PDIPG on OBSCs): -2.32E-02 | EC90 [8]: > 10 µM | EC90 [9]: > 10 µM
